Experimental data taken from ChEMBL document CHEMBL5131391, “One-pot three-component synthesis of novel pyrazolo[3,4-b]pyridines as potent antileukemic agents” (Eur J Med Chem, 2022).

How the values were obtained:
Format in all cases: functional
[1] = test system: HCT-116; assay: Antiproliferative activity against human HCT-116 cells assessed as growth inhibition at 10 uM measured after 48 hrs by NCI protocol based SRB assay relative to control; settings: read-out: GI
[2] = test system: NCI/ADR-RES; assay: Antiproliferative activity against human NCl/ADR-RES cells assessed as growth inhibition at 10 uM measured after 48 hrs by NCI protocol based SRB assay relative to control; settings: read-out: GI
[3] = test system: 786-0; assay: Antiproliferative activity against human 786-0 cells assessed as growth inhibition at 10 uM measured after 48 hrs by NCI protocol based SRB assay relative to control; settings: read-out: GI
[4] = test system: SW-620; assay: Antiproliferative activity against human SW-620 cells assessed as growth inhibition at 10 uM measured after 48 hrs by NCI protocol based SRB assay relative to control; settings: read-out: GI
[5] = test system: SK-MEL-5; assay: Antiproliferative activity against human SK-MEL-5 cells assessed as growth inhibition at 10 uM measured after 48 hrs by NCI protocol based SRB assay relative to control; settings: read-out: GI
[6] = test system: K562; assay: Antiproliferative activity against human K562 cells assessed as reduction in cell viability incubated for 72 hrs by resazurin dye based assay; settings: K562, 72 h
[7] = test system: OVCAR-3; assay: Antiproliferative activity against human OVCAR-3 cells assessed as growth inhibition at 10 uM measured after 48 hrs by NCI protocol based SRB assay relative to control; settings: read-out: GI
[8] = test system: CCRF-CEM; assay: Antiproliferative activity against human CCRF-CEM cells assessed as growth inhibition at 10 uM measured after 48 hrs by NCI protocol based SRB assay relative to control; settings: read-out: GI
[9] = test system: EKVX; assay: Antiproliferative activity against human EKVX cells assessed as growth inhibition at 10 uM measured after 48 hrs by NCI protocol based SRB assay relative to control; settings: read-out: GI
[10] = test system: LOX IMVI; assay: Antiproliferative activity against human LOX IMVI cells assessed as growth inhibition at 10 uM measured after 48 hrs by NCI protocol based SRB assay relative to control; settings: read-out: GI
[11] = test system: U-251; assay: Antiproliferative activity against human U-251 cells assessed as growth inhibition at 10 uM measured after 48 hrs by NCI protocol based SRB assay relative to control; settings: read-out: GI
[12] = test system: ACHN; assay: Antiproliferative activity against human ACHN cells assessed as growth inhibition at 10 uM measured after 48 hrs by NCI protocol based SRB assay relative to control; settings: read-out: GI
[13] = test system: DU-145; assay: Antiproliferative activity against human DU-145 cells assessed as growth inhibition at 10 uM measured after 48 hrs by NCI protocol based SRB assay relative to control; settings: read-out: GI
[14] = test system: A549; assay: Antiproliferative activity against human A549 cells assessed as growth inhibition at 10 uM measured after 48 hrs by NCI protocol based SRB assay relative to control; settings: read-out: GI
[15] = test system: MDA-MB-231; assay: Antiproliferative activity against human MDA-MB-231 cells assessed as growth inhibition at 10 uM measured after 48 hrs by NCI protocol based SRB assay relative to control; settings: read-out: GI
[16] = test system: PC-3; assay: Antiproliferative activity against human PC-3 cells assessed as growth inhibition at 10 uM measured after 48 hrs by NCI protocol based SRB assay relative to control; settings: read-out: GI
[17] = test system: HCT-15; assay: Antiproliferative activity against human HCT-15 cells assessed as growth inhibition at 10 uM measured after 48 hrs by NCI protocol based SRB assay relative to control; settings: read-out: GI
[18] = test system: NCI-H23; assay: Antiproliferative activity against human NCI-H23 cells assessed as growth inhibition at 10 uM measured after 48 hrs by NCI protocol based SRB assay relative to control; settings: read-out: GI
[19] = test system: Hs-578T; assay: Antiproliferative activity against human Hs-578T cells assessed as growth inhibition at 10 uM measured after 48 hrs by NCI protocol based SRB assay relative to control; settings: read-out: GI
[20] = test system: KM12; assay: Antiproliferative activity against human KM12 cells assessed as growth inhibition at 10 uM measured after 48 hrs by NCI protocol based SRB assay relative to control; settings: read-out: GI
[21] = test system: SK-MEL-28; assay: Antiproliferative activity against human SK-MEL-28 cells assessed as growth inhibition at 10 uM measured after 48 hrs by NCI protocol based SRB assay relative to control; settings: read-out: GI
[22] = test system: SNB-19; assay: Antiproliferative activity against human SNB-19 cells assessed as growth inhibition at 10 uM measured after 48 hrs by NCI protocol based SRB assay relative to control; settings: read-out: GI
[23] = test system: NCI-H460; assay: Antiproliferative activity against human NCI-H460 cells assessed as growth inhibition at 10 uM measured after 48 hrs by NCI protocol based SRB assay relative to control; settings: read-out: GI
[24] = test system: NCI-H522; assay: Antiproliferative activity against human NCI-H522 cells assessed as growth inhibition at 10 uM measured after 48 hrs by NCI protocol based SRB assay relative to control; settings: read-out: GI
[25] = test system: M14; assay: Antiproliferative activity against human M14 cells assessed as growth inhibition at 10 uM measured after 48 hrs by NCI protocol based SRB assay relative to control; settings: read-out: GI
[26] = test system: MV4-11; assay: Antiproliferative activity against human MV4-11 cells assessed as reduction in cell viability incubated for 72 hrs by resazurin dye based assay; settings: MV4-11, 72 h
[27] = test system: TK-10; assay: Antiproliferative activity against human TK-10 cells assessed as growth inhibition at 10 uM measured after 48 hrs by NCI protocol based SRB assay relative to control; settings: read-out: GI
[28] = test system: HOP-62; assay: Antiproliferative activity against human HOP-62 cells assessed as growth inhibition at 10 uM measured after 48 hrs by NCI protocol based SRB assay relative to control; settings: read-out: GI
[29] = test system: UO-31; assay: Antiproliferative activity against human UO-31 cells assessed as growth inhibition at 10 uM measured after 48 hrs by NCI protocol based SRB assay relative to control; settings: read-out: GI
[30] = test system: RXF 393; assay: Antiproliferative activity against human RXF 393 cells assessed as growth inhibition at 10 uM measured after 48 hrs by NCI protocol based SRB assay relative to control; settings: read-out: GI
[31] = test system: OVCAR-4; assay: Antiproliferative activity against human OVCAR-4 cells assessed as growth inhibition at 10 uM measured after 48 hrs by NCI protocol based SRB assay relative to control; settings: read-out: GI
[32] = test system: SF-268; assay: Antiproliferative activity against human SF-268 cells assessed as growth inhibition at 10 uM measured after 48 hrs by NCI protocol based SRB assay relative to control; settings: read-out: GI
[33] = test system: K562; assay: Antiproliferative activity against human K562 cells assessed as growth inhibition at 10 uM measured after 48 hrs by NCI protocol based SRB assay relative to control; settings: read-out: GI
[34] = test system: SK-MEL-2; assay: Antiproliferative activity against human SK-MEL-2 cells assessed as growth inhibition at 10 uM measured after 48 hrs by NCI protocol based SRB assay relative to control; settings: read-out: GI
[35] = test system: HL-60(TB); assay: Antiproliferative activity against human HL-60(TB) cells assessed as growth inhibition at 10 uM measured after 48 hrs by NCI protocol based SRB assay relative to control; settings: read-out: GI
[36] = test system: MOLT-4; assay: Antiproliferative activity against human MOLT-4 cells assessed as growth inhibition at 10 uM measured after 48 hrs by NCI protocol based SRB assay relative to control; settings: read-out: GI

Compound | inhibition of growth at 10 µM [1] [%] | inhibition of growth at 10 µM [2] [%] | inhibition of growth at 10 µM [3] [%] | inhibition of growth at 10 µM [4] [%] | inhibition of growth at 10 µM [5] [%] | IC50 [6] [µM] | inhibition of growth at 10 µM [7] [%] | inhibition of growth at 10 µM [8] [%] | inhibition of growth at 10 µM [9] [%] | inhibition of growth at 10 µM [10] [%] | inhibition of growth at 10 µM [11] [%] | inhibition of growth at 10 µM [12] [%] | inhibition of growth at 10 µM [13] [%] | inhibition of growth at 10 µM [14] [%] | inhibition of growth at 10 µM [15] [%] | inhibition of growth at 10 µM [16] [%] | inhibition of growth at 10 µM [17] [%] | inhibition of growth at 10 µM [18] [%] | inhibition of growth at 10 µM [19] [%] | inhibition of growth at 10 µM [20] [%] | also measured
COc1cc(-c2c(C#N)c(-c3ccccc3)nc3c2c(-c2ccccc2)nn3-c2ccccc2)ccc1O | 45 | 22 | 24 | 22 | 21 | > 50 | 23 | 31 | 18 | 26 | 31 | 13 | 25 | 48 | 28 | 49 | 30 | 26 | 32 | 35 | inhibition of growth at 10 µM [21]: 19%; inhibition of growth at 10 µM [22]: 24%; inhibition of growth at 10 µM [23]: 38%; inhibition of growth at 10 µM [24]: 47%; inhibition of growth at 10 µM [25]: 19%; IC50 [26]: > 50 µM; inhibition of growth at 10 µM [27]: 42%; inhibition of growth at 10 µM [28]: 15%; inhibition of growth at 10 µM [29]: 32%; inhibition of growth at 10 µM [30]: 42%; inhibition of growth at 10 µM [31]: 34%; inhibition of growth at 10 µM [32]: 27%
N#Cc1c(-c2ccc(Cl)cc2)nc2c(c(-c3ccccc3)nn2-c2ccccc2)c1-c1ccc(O)cc1 | 86 | 43 | 83 | 46 | 44 | 20.8 | 52 | 73 | 33 | 74 | 67 | 44 | 50 | 59 | 64 | 89 | 73 | 52 | 74 | 59 | inhibition of growth at 10 µM [33]: 92%; inhibition of growth at 10 µM [34]: 26%; inhibition of growth at 10 µM [35]: 68%; inhibition of growth at 10 µM [36]: 76%; inhibition of growth at 10 µM [21]: 44%; inhibition of growth at 10 µM [22]: 35%; inhibition of growth at 10 µM [23]: 75%; inhibition of growth at 10 µM [24]: 45%; inhibition of growth at 10 µM [25]: 62%; IC50 [26]: 25.1 µM; inhibition of growth at 10 µM [27]: 83%; inhibition of growth at 10 µM [28]: 51%; inhibition of growth at 10 µM [29]: 70%; inhibition of growth at 10 µM [30]: 127%; inhibition of growth at 10 µM [31]: 36%; inhibition of growth at 10 µM [32]: 54%
Cc1ccc(-c2nc3c(c(-c4ccccc4)nn3-c3ccccc3)c(-c3ccc(O)cc3)c2C#N)cc1 | 58 | 19 | 82 | 38 | 23 | 8.8 | 36 | 61 | 26 | 88 | 59 | 33 | 40 | 48 | 55 | 66 | 72 | 33 | 77 | 45 | inhibition of growth at 10 µM [33]: 78%; inhibition of growth at 10 µM [34]: 22%; inhibition of growth at 10 µM [35]: 68%; inhibition of growth at 10 µM [36]: 60%; inhibition of growth at 10 µM [21]: 33%; inhibition of growth at 10 µM [22]: 31%; inhibition of growth at 10 µM [23]: 73%; inhibition of growth at 10 µM [24]: 31%; inhibition of growth at 10 µM [25]: 40%; IC50 [26]: 3.3 µM; inhibition of growth at 10 µM [27]: 62%; inhibition of growth at 10 µM [28]: 60%; inhibition of growth at 10 µM [29]: 61%; inhibition of growth at 10 µM [30]: 110%; inhibition of growth at 10 µM [31]: 18%; inhibition of growth at 10 µM [32]: 40%
